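Dose response: 5 concentrations. Exposure: 48 h. Format: 96-well plates. Endpoint: linear interpolation; highest concentration if not reached. GI50 is the concentration that inhibits growth by half.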 Active and inactive are the calls of the source. Cut-off read from the data, not from the text of the source: active = GI50 up to about 1.1 µM and inactive = higher.

Holding throughout (test): NCI tumour cell line growth inhibition, 48 h
Experiment [1] has as its system BT-549.
Experiment [2] relates to CAKI-1.
Experiment [3] concerns CCRF-CEM.
Experiment [4] has as its system HL-60.
Experiment [5] deals with HOP-62.
Experiment [6] relates to LOX IMVI.
Experiment [7] relates to MCF7.
Experiment [8] relates to MDA-MB-231.
Experiment [9] deals with MDA-MB-435.
The test system of experiment [10] is MDA-N.
The test system of experiment [11] is SF-268.
Experiment [12] deals with SF-539.
The subject of experiment [13] is SK-MEL-2.
The test system of experiment [14] is SK-MEL-5.
Experiment [15] concerns SN12C.
The test system of experiment [16] is SNB-19.
For experiment [17], the system named is SNB-75.
Experiment [18] relates to U-251.
The test system of experiment [19] is UACC-257.
Experiment [20] concerns Malme-3M.

In the case of `CCCCCCOc1ccc(C(=O)NOCc2ccccc2)cc1`, the GI50 in [1] was > 100 µM (inactive); in experiment [2] it was > 100 µM (inactive); in experiment [3], 90.2 µM (inactive); in experiment [4] it was 39.7 µM (inactive); in experiment [5], > 100 µM (inactive); in experiment [6], > 100 µM (inactive). The GI50 in experiment [7] was > 100 µM (inactive); in [8], > 100 µM (inactive); in experiment [9], 41.3 µM (inactive); in experiment [10], 45.8 µM (inactive); in experiment [11], > 100 µM (inactive); in [12], > 100 µM (inactive). Moreover, the GI50 in [13], in experiment [14], in experiment [15], in experiment [16], in experiment [17] and in experiment [18] was > 100 µM (inactive) throughout. The GI50 in experiment [19] was > 100 µM (inactive).

`CCN(CC)CCNc1ccc([N+](=O)[O-])c2nc3ccccc3c(N)c12`: the GI50 in experiment [1] was 0.791 µM (active); in experiment [2], 1.23 µM (inactive); in [3], 0.251 µM (active); in [4], 0.297 µM (active); in [5], 1.48 µM (inactive); in experiment [6], 0.333 µM (active). The GI50 in experiment [7] is 0.364 µM (active); in experiment [8] it was 0.41 µM (active); in experiment [9] it was 0.481 µM (active); in experiment [10], 0.504 µM (active); in [11], 0.482 µM (active); in experiment [12] it was 0.446 µM (active). Moreover, the GI50 is 0.214 µM (active) in [13]; 0.166 µM (active) in experiment [14]; 0.441 µM (active) in experiment [15]; 0.615 µM (active) in experiment [16]; 1.17 µM (inactive) in [17]; 0.682 µM (active) in [18]. Also, the GI50 in experiment [19] was 0.931 µM (active).

Consider `O=C1Oc2ccccc2C(=O)/C1=C/NC(=S)NCc1ccccc1`, for which the GI50 in experiment [1] is 5.09 µM (inactive); in [2], 21 µM (inactive); in experiment [4], 42.7 µM (inactive); in experiment [5], 57.9 µM (inactive); in experiment [6] it was 69.3 µM (inactive); in experiment [7], > 100 µM (inactive). The GI50 in experiment [8] is 71 µM (inactive); in experiment [9] it was 54.3 µM (inactive); in experiment [10] it was 50.5 µM (inactive); in [12] it was 43.9 µM (inactive); in experiment [13] it was 19.3 µM (inactive); in experiment [14] it was 69.5 µM (inactive). Besides, the GI50 was 56.5 µM (inactive) in experiment [15]; 43.6 µM (inactive) in experiment [16]; 16.9 µM (inactive) in [17]; 57.3 µM (inactive) in experiment [18]; 90.6 µM (inactive) in experiment [19].

As to `N#CCCN(CCC#N)c1ccc(/C=C2\N=C(c3ccccc3)N(NC(N)=S)C2=O)cc1`, the GI50 in experiment [1], in experiment [2], in experiment [3], in experiment [4], in experiment [5] and in [6] was > 100 µM (inactive) throughout. Besides, the GI50 in [7] was > 100 µM (inactive); in experiment [8], > 100 µM (inactive); in experiment [9], 41.4 µM (inactive); in experiment [10], > 100 µM (inactive); in experiment [20] it was > 100 µM (inactive); in experiment [11], > 100 µM (inactive). Also, the GI50 in [12], in experiment [13], in experiment [14], in [15], in experiment [16] and in experiment [18] was > 100 µM (inactive) in each case. Further, in experiment [19], the GI50 was > 100 µM (inactive).

For the compound `COC(=O)C(Cc1c[nH]c2ccccc12)NP(=O)(O)OCC1OC(n2cc(I)c(=O)[nH]c2=O)CC1O` (stereo not given), the GI50 in [1], in experiment [2], in experiment [3], in experiment [4], in experiment [5] and in experiment [6] was > 100 µM (inactive) in each case. Also, the GI50 in experiment [7], in experiment [8], in experiment [9], in [10], in experiment [20] and in experiment [11] was > 100 µM (inactive) in each case. Besides, the GI50 in [12], in [14], in experiment [15], in [16], in [17] and in experiment [18] was > 100 µM (inactive) each time. Also, the GI50 in experiment [19] is > 100 µM (inactive).

Consider `C[C@]12CCC(=O)C=C1CC[C@@H]1C2CC[C@]2(C)Nc3c(ncn3-c3ccc(F)cc3)CC12` (stereo not given in full), for which the GI50 in [1] is 20.3 µM (inactive); in experiment [2], 46.2 µM (inactive); in experiment [3] it was 21 µM (inactive); in experiment [4], 3.2 µM (inactive); in [5], 37.8 µM (inactive); in [7] it was 18 µM (inactive). The GI50 is 42.5 µM (inactive) in experiment [8]; 12.6 µM (inactive) in experiment [9]; 11.8 µM (inactive) in [10]; 18.9 µM (inactive) in [20]; 19.1 µM (inactive) in experiment [11]; 11.7 µM (inactive) in experiment [12]. For the same compound, the GI50 in experiment [14] is 13.5 µM (inactive); in experiment [15] it was 41.3 µM (inactive); in experiment [16], 49.2 µM (inactive); in experiment [17] it was 17.5 µM (inactive); in experiment [18], 20.9 µM (inactive); in experiment [19] it was 17.8 µM (inactive).

Regarding `Nc1nc(O)c([I+]c2ccccc2)c(=O)[nH]1`, the GI50 was 57.1 µM (inactive) in experiment [1]; > 100 µM (inactive) in experiment [2]; > 100 µM (inactive) in [3]; > 100 µM (inactive) in experiment [4]; > 100 µM (inactive) in experiment [5]; > 100 µM (inactive) in [6]. The GI50 in experiment [7], in experiment [8], in experiment [9], in [10], in [20] and in [11] was > 100 µM (inactive) in each case. The GI50 in experiment [12], in experiment [14], in [15], in experiment [16], in [17] and in [18] was > 100 µM (inactive) throughout. Also, in [19], the GI50 is > 100 µM (inactive).

In the case of `COc1cc(C2C3=C(COC3=O)OC(C)(C)Oc3cc4c(cc32)OCO4)cc(OC)c1O` (stereo not given), the GI50 in [1] is 12.9 µM (inactive); in experiment [2], 1.87 µM (inactive); in experiment [3], 1.36 µM (inactive); in experiment [4], 0.291 µM (active); in experiment [5], 0.791 µM (active); in experiment [6], 0.706 µM (active). For the same compound, the GI50 is 0.364 µM (active) in experiment [7]; 0.76 µM (active) in experiment [8]; 0.217 µM (active) in experiment [9]; 0.199 µM (active) in experiment [10]; 0.746 µM (active) in experiment [20]; 0.916 µM (active) in experiment [11]. The GI50 in experiment [12] is 0.467 µM (active); in experiment [13] it was 14.6 µM (inactive); in experiment [14] it was 0.246 µM (active); in experiment [15], 2.79 µM (inactive); in experiment [16], 1.33 µM (inactive); in [18], 0.966 µM (active). In addition, the GI50 in experiment [19] was 5.14 µM (inactive).

For the compound `O=C(NS(=O)(=O)Nc1ccc(Cl)cc1)OCc1ccc(Cl)cc1Cl`, the GI50 in experiment [1] was 28.4 µM (inactive); in [3], 57 µM (inactive); in experiment [4] it was 25.3 µM (inactive); in experiment [5] it was 36.7 µM (inactive); in experiment [6], 22.6 µM (inactive); in [7], 14.8 µM (inactive). For the same compound, the GI50 in [8] was 23.3 µM (inactive); in [9] it was 22.1 µM (inactive); in experiment [10], 14.7 µM (inactive); in experiment [20], 19.1 µM (inactive); in experiment [11] it was 1.02 µM (active); in experiment [12] it was 19.9 µM (inactive). Moreover, the GI50 is 28.8 µM (inactive) in [13]; 17.8 µM (inactive) in [14]; 25.3 µM (inactive) in experiment [15]; 18.6 µM (inactive) in experiment [16]; 35.7 µM (inactive) in [17]; 28.6 µM (inactive) in experiment [18]. The GI50 in [19] is 46.6 µM (inactive).

Regarding `CCOC(=O)C1c2[nH]c3ccccc3c2CCN1C(=O)c1ccco1` (stereo not given), the GI50 in experiment [1], in experiment [2], in experiment [3], in [4], in experiment [5] and in [7] was > 10 µM (inactive) throughout. The GI50 in [8], in [9], in experiment [10], in experiment [20], in experiment [11] and in [12] was > 10 µM (inactive) each time. Moreover, the GI50 in experiment [14], in experiment [15], in experiment [16], in experiment [17], in experiment [18] and in experiment [19] was > 10 µM (inactive) each time.

`Cc1nc(C)c(Cc2ccccc2)o1`: the GI50 in [1], in [2], in experiment [3], in experiment [4], in experiment [5] and in experiment [6] was > 100 µM (inactive) throughout. The GI50 in [7], in experiment [8], in experiment [9], in [10], in experiment [20] and in [11] was > 100 µM (inactive) in each case. Besides, the GI50 was > 100 µM (inactive) in [12]; > 100 µM (inactive) in [14]; > 100 µM (inactive) in [15]; > 100 µM (inactive) in experiment [16]; 41.4 µM (inactive) in experiment [17]; > 100 µM (inactive) in experiment [18]. Besides, the GI50 in experiment [19] is > 100 µM (inactive).

The values are drawn from ChEMBL document CHEMBL1201862, “PubChem BioAssay data set” (2004).
